Measured values published in patent US12643867B2, “Compositions and uses thereof” (University of Virginia Patent Foundation, priority 2017, dated 2026).

molecular target: T1, M4K3 (Mitogen-activated protein kinase kinase kinase kinase 3) (Homo sapiens, UniProt Q8IVH8); experiment: SILAC LC-MS ATP acyl phosphate probe competition, native kinases in HEK293T; type: binding; conditions: site Lys2; ATP 1 mM; Ketanserin, Ritanserin 100 μM; RF001 1 mM
T1 construct: Native kinases; endogenous in cells; host or cells: HEK293T soluble proteome
T1 sequence (Q8IVH8 1-894): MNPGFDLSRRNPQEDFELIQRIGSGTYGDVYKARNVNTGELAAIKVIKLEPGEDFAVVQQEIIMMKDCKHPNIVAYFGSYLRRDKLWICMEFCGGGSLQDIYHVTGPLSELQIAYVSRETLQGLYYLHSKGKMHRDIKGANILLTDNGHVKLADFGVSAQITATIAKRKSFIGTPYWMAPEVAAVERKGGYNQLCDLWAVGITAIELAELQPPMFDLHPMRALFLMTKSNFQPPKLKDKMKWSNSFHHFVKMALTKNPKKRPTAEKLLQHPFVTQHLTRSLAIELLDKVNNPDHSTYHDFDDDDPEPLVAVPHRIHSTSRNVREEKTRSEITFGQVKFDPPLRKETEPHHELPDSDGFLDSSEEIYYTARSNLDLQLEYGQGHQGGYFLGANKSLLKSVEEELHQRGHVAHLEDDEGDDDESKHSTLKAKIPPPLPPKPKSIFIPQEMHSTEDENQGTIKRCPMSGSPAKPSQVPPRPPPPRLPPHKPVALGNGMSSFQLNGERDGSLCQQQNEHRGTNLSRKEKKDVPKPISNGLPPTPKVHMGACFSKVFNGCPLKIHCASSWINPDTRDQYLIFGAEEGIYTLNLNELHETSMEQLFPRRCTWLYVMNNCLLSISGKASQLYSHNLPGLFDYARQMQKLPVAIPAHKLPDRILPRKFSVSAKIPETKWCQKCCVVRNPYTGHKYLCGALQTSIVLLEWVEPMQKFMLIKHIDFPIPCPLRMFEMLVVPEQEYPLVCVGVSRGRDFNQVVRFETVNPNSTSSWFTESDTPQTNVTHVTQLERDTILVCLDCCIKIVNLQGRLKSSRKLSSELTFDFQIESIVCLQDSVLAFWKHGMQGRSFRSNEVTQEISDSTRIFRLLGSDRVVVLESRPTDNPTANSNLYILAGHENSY
In short: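 Light and heavy SILAC HEK293T proteomes (2 mg/ml in kinase buffer) were pre-treated with DMSO or compound (50× stock in DMSO) for 30 min at 25° C, then mixed 1:1, reduced, alkylated and digested with trypsin/Lys-C. Desthiobiotin-labelled peptides were avidin-enriched and analysed by LC-MS/MS on an Orbitrap, top-10 data-dependent acquisition.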

| SMILES | SILAC ratio, M4K3 probe-modified peptide |
| --- | --- |
| O=C(c1ccc(F)cc1)C1CCN(CCn2c(=O)[nH]c3ccccc3c2=O)CC1 [Ketanserin] | 1.4 |
| Fc1ccc(C(=C2CCNCC2)c2ccc(F)cc2)cc1 [RF001, 4-(Bis(4-fluorophenyl)methylene) piperidine] | 1.1 |
| Cc1nc2sccn2c(=O)c1CCN1CCC(=C(c2ccc(F)cc2)c2ccc(F)cc2)CC1 [Ritanserin] | 1.8 |
